The source of these data is US10583109B2, “Use of silver(I) complexes as anticancer agents” (University of Johannesburg, priority 2012, dated 2020).

One may read the viability as a read-out of living cells in per cent, often relative to untreated cells. A low value points to more harm to the cells.

The test system of series [1] is SNO-oesophageal cancer cells. Kind of series: Morphological features of SNO-oesophageal cancer cells by inverse light microscopy. Format: cell-based. The note with it: 24 hours of treatment. How it is done:
Morphological studies were done by means of an Axiovert 25 inverted microscope (Carl Zeiss, Göttingen, Germany) with Axio Vision 3.1 software (Carl Zeiss, Göttingen, Germany) using an magnification of 100×.
After 24 hours of treatment with complexes (1)-(5) including their ligands the cells were examined under said Axiovert 25 inverted light microscope. This was done to determine how the complexes of the present invention influence morphology which was compared to 100 μM Cisplatin (apoptotic control) and 15% H2O2 (necrotic control).
Light microscope images indicating the morphology of the differentially treated SNO-oesophageal cancer cells is shown in FIG. 8. An untreated control (a) including 100 μM Cisplatin (b), an apoptotic control and 15% H2O2 (c), and a necrotic control was included. Cells were treated with 10 μM silver(I) thiocyanate phosphine complexes (1)-(5) as well as their separate ligands (Ligand-1 to Ligand-5, respectively) (FIGS. 8d to 8m). Black arrows represent signs of apoptosis, while the white arrows represent signs of necrosis.
An Axiovert 25 inverted microscope was used to examine if these complexes affect the morphological features of the malignant cells in any other way. This was done at a magnification of 100× with the use of Axio Version 3.1 software (Carl Zeiss, Gottingen, Germany).
Morphological studies where done after 24 hours of treatment to determine how these compounds influence/change specific features of the malignant SNO-oesophageal cancer cells, compared to the untreated (UC) and 1% DMSO vehicle control. The treated cancer cells including their controls were examined under an Axiovert 25 inverted light microscope (Carl Zeiss, Göttingen, Germany) with Axio Vision 3.1 software (Carl Zeiss, Göttingen, Germany) using a 100× magnification. In FIG. 19, the morphology of the different controls including Ligand-10 and complexes (10)-(12) are represented. To predict the targeting mechanisms of these compounds, the treated cells were compared to 100 μM Cisplatin (apoptotic control) and 25% H2O2 (necrotic control).

Series [2] concerns SNO-oesophageal cancer cells. The class given is cell-based. The note with it: for cancer cell death compared to the vehicle control: 14 μM, 24 hour treatment.
Series [3] has as its system SNO-oesophageal cancer cells. Kind of series: Flow cytometric analysis (Annexin-V FITC / PI) of apoptosis and/or necrosis in SNO-oesophageal cancer cells. Format: cell-based. Conditions: 14 μM, 24 hours. How it is done:
To determine if either apoptosis or necrosis occurred, the cells were double labelled with Annexin-V FITC and Propidium Iodide (PI) by means of an Annexin-V FITC assay kit (Serotec, UK). This was done according to manufacturer's instructions with a few adjustments. Briefly, the cells (±3×10^5 cells/ml) were washed twice with cold phosphate buffered saline (PBS), followed by the addition of 100 μl 1× binding buffer. Two and a half microliters of Annexin-V along with 5 μl PI were added in the dark and was incubated for 15 minutes at room temperature. After incubation, 400 μl 1× binding buffer was added and cells were analysed using the FACSAria flow cytometer (BD Biosciences, San Jose, Calif.) with FACSDiva software (BD Biosciences, San Jose, Calif.) 492 nm (excitation) and 520 nm for Annexin and 488 nm and 575 nm(emission) for PI.
The cell membrane contains a negatively charged phosphatidylserine (PS) on the inner leaflet and is exposed when apoptosis or necrosis takes place. Annexin-V interacts with PS in both apoptotic and necrotic cells, making these cellular deaths undistinguishable. This is overcome by using PI as an alternative label that interacts with the exposed DNA of necrotic cells only, leading to the fluorescent detection of both these labels. Pie charts (FIG. 9) were constructed for all the controls (including Ligand-1 to Ligand-5) and the different silver(I) thiocyanate phosphine complexes (1)-(5).
Pie charts representing the four different flow cytometric quadrants of Annexin-V and […] to determine the mode of cellular death induced in differentially treated SNO-oesophageal cells are represented in FIG. 9. An untreated control (A), apoptotic control (B) and necrotic control (C) were included. Cells were treated with 10 μM of the different ligands including the silver(I) thiocyanate phosphine complexes (1)-(5). An average percentage was calculated for all segments where the SEM is n=3 for all treatments except for 15% H2O2 (n=2). The four segments represent the following: White segment—negative for FITC and PI, Light grey segment—positive for FITC but negative for PI, Dark grey segment—positive for PI but negative for FITC and Black segment—positive for both FITC and PI. Cells undergoing early apoptosis are represented by the light grey segment, while those of late apoptosis and primary necrosis are represented by the black segment. Necrotic cells are represented by the dark grey segment and intact viable cells are shown by the white segment.
Approximately 3×10^5 cells were washed with ice cold phosphate buffered saline solution (PBS). The cells were double labeled using an Annexin-V FITC assay kit adjusting the protocol. A 1× binding buffer (100 μl) was used to fix the cells. Annexin-V (2.5 μl) and Propidium Iodide (PI—5 μl) labels were added respectively followed by a 15 minute incubation, at room temperature, in the dark. After the incubation period, 400 μl of the 1× binding buffer was added, where counting of the cellular events was made using an FACSAria flow cytometer (BD Biosciences, San Jose, Calif.) with FACSDiva software (BD Biosciences, San Jose, Calif.). This technique in particular identifies whether predicted apoptotic cell death (or necrosis) was induced by these complexes.
As observed in FIG. 14, dot blots represent the mode of cellular death induced in the SNO-oesophageal cancer cells after 24 hours of treatment. FIG. 14(a): 0.1% DMSO, FIG. 14(b): 100 μM CDDP, FIG. 14(c): 25% H2O2, FIG. 14(d-i): complexes (6)-(9). An average percentage was calculated for all quadrants where the SEM is n=2 for all treatments. The four quadrants represent the following: Quadrant Q3 is negative for FITC and PI, Quadrant Q4 is positive for FITC but negative for PI, Quadrant Q1 is positive for PI but negative for FITC and Quadrant Q2 is positive for both FITC and PI. Cells undergoing early apoptosis are more likely to be found in Quadrant Q4 while those of late apoptosis and primary necrosis will be found in Quadrant Q2. […]
(In general: A flow cytometer gives signals particle by particle.)

The subject of series [4] is MCF-7 breast cancer cells. Kind of series: AlamarBlue viability and proliferation assay of MCF-7 breast cancer cells. The class given is cell-based, human. On the procedure:
For the biological studies, MCF-7 breast cancer cells were obtained from an immortal cell line from human adenocarcinoma from (primary site) mammary gland and (metastatic site) pleural effusion (ATCC no HTB-22).
MCF-7 breast cancer cells were cultured in Dulbecco's modified Eagle's medium (DMEM), 13.53 g/L with sodium bicarbonate (NaHCO3), 3.7 g/L supplemented with 10% foetal bovine serum (FBS), 1% gentamycin and 5% Penicillin/Streptomycin/Fungizone in 75 cm^3 culture flasks. Cells were subcultured twice a week and incubated at 37° C. with 5% CO2 in a humidified atmosphere. Hanks balanced salt solution (HBSS), supplemented DMEM media and trypsin versene were warmed to 37° C. prior to subculturing. Cells were washed twice with 10 ml Hanks balanced salt solution for 1 minute and were then incubated for 4.5 to 5 minutes at 37° C. with 6 ml trypsin versene to remove the cells from the culture flask. To inactivate the trypsin versene, 10 ml supplemented DMEM was added and the cells were pelleted by centrifugation at 1028 g for 4 minutes with an Allegra™ 25R Centrifuge. The pellet was resuspended in 1 ml supplemented DMEM and 500 μl of the cell suspension was then added to 25 ml of supplemented DMEM media in 75 cm^3 culture flasks.
MCF-7 breast cancer cells, in terms of a first study, and SNO-oesophageal cancer cells, in terms of a second study, were treated with 10 μM silverthiocyanide complexes (1)-(5), as well as their ligands (Ligand-1 to Ligand-5) over a 24 hour incubation period. […] An untreated negative control (UT) was exposed to similar conditions as the treated cells and monitored during the experimental study.
The AlamarBlue® viability and proliferation assay of complexes (1)-(5) for the MCF-7 breast cancer cells is depicted in FIGS. 1A to 1F. The percentage viability of control samples determined by the AlamarBlue® viability and proliferation assay is depicted in FIG. 1A. […] A significant difference (P<0.001) between the control and the treated samples was calculated using Student's T-test and is indicated by an asterisk.
This Figure depicts the percentage viability of MCF-7 cells treated with various concentrations of complex (1) as determined by the AlamarBlue® viability and proliferation assay. […] The asterisk indicates a significant difference between a sample and the control (P<0.001) as calculated with Student's T-test.
FIG. 1C to FIG. 1F represent the dose dependant studies of complexes (2) to (5), respectively. In each of these Figures, the percentage viability of MCF-7 cells treated with various concentrations of complexes (2) to (5) was determined by the AlamarBlue® viability and proliferation assay. […] The asterisk indicates a significant difference between a sample and the control (P<0.001) as calculated with Student's T-test. […]

As for `c1ccc(P(c2ccccc2)c2ccccc2)cc1` [Ligand-10, PPh3, reference compound], in series [1] (14 μM), the “signs of apoptosis / cell death (morphology)” value is listed as “minimal cell death similar to apoptosis”. This molecule yielded a viability in series [2] (14 µM) of 99.03%. The “influence on cellular viability and PS externalisation, flow cytometry” value in series [3] was “did not influence”.

Regarding `Cc1ccc([P+](c2ccc(C)cc2)(c2ccc(C)cc2)[Ag]2([P+](c3ccc(C)cc3)(c3ccc(C)cc3)c3ccc(C)cc3)[N+]#C[S][Ag]([P+](c3ccc(C)cc3)(c3ccc(C)cc3)c3ccc(C)cc3)([P+](c3ccc(C)cc3)(c3ccc(C)cc3)c3ccc(C)cc3)[N+]#C[S]2)cc1` [complex (2), [AgSCN{P(4-MeC6H4)3}2]2], in series [4] (10 μM, 24 hours after treatment, compared to the untreated control), the “decrease in viability and proliferation” value is listed as approximately 70%. Also, the “necrotic cell death (morphology)” value in series [1] (10 μM) is “Necrotic cell death was also observed”.

With `Clc1ccc([P+](c2ccc(Cl)cc2)(c2ccc(Cl)cc2)[Ag]2([P+](c3ccc(Cl)cc3)(c3ccc(Cl)cc3)c3ccc(Cl)cc3)[N+]#C[S][Ag]([P+](c3ccc(Cl)cc3)(c3ccc(Cl)cc3)c3ccc(Cl)cc3)([P+](c3ccc(Cl)cc3)(c3ccc(Cl)cc3)c3ccc(Cl)cc3)[N+]#C[S]2)cc1` [complex (4), [AgSCN{P(4-ClC6H4)3}2]2], the “cytotoxic activity (ranking)” value in series [4] (MCF-7 cells) was “strongest”.

On to `[Cl][Ag]([PH](c1ccccc1)(c1ccccc1)c1ccccc1)([PH](c1ccccc1)(c1ccccc1)c1ccccc1)[PH](c1ccccc1)(c1ccccc1)c1ccccc1` [complex (10), AgCl(PPh3)3], for which, in series [1] (14 μM), the “necrotic cell death (morphology)” value is on record as “Minimal necrotic cell death” and the “signs of apoptosis / cell death (morphology)” value is recorded as “multiple signs of apoptosis”. For the same molecule, in series [2], the “cancer cell death compared to the vehicle control” value was “significantly induced cancer cell death”.

For the molecule `[Br][Ag]([PH](c1ccccc1)(c1ccccc1)c1ccccc1)([PH](c1ccccc1)(c1ccccc1)c1ccccc1)[PH](c1ccccc1)(c1ccccc1)c1ccccc1` [complex (11), AgBr(PPh3)3], in series [1] (14 μM), the “necrotic cell death (morphology)” value was “Minimal necrotic cell death” and the “signs of apoptosis / cell death (morphology)” value is listed as “multiple signs of apoptosis”. For the same molecule, the “cancer cell death compared to the vehicle control” value in series [2] is on record as “significantly induced cancer cell death”. Further, in series [3], the “apoptotic cells (early and late stages), flow cytometry” value turned out to be 47.23%; the “necrotic cells positive for PI, flow cytometry” value was 14.73%.

Turning to AgCN(PPh3)3 [complex (12)], in series [1] (14 μM), the “necrotic cell death (morphology)” value is listed as “Minimal necrotic cell death” and the “signs of apoptosis / cell death (morphology)” value was “multiple signs of apoptosis”. For the same molecule, the “cancer cell death compared to the vehicle control” value in series [2] is “significantly induced cancer cell death”.
